Data set [1] has as its target human DAT (Homo sapiens (Human), UniProt Q01959). Nature of the data set: Binding to dopamine transporter (DAT) in vitro, [3H]-WIN35,428 SPA. The method, then: Binding to dopamine transporter (DAT) in vitro. Human embryonic kidney (HEK) 293 cells (Invitrogen, Zug, Switzerland) stably transfected with human DAT were cultured. The cells were collected and washed three times with phosphate-buffered saline (PBS). The pellets were frozen at −80° C. The pellets were then resuspended in 400 ml of 20 mM HEPES-NaOH, pH 7.4, that contained 10 mM EDTA at 4° C. […] Aliquots of the membrane stocks were frozen at −80° C. All assays were performed at least three times. The test compounds were diluted in […] of binding buffer (252 mM NaCl, 5.4 mM KCl, 20 mM Na2HPO4, 3.52 mM KH2PO4, pH 7.4) and 10 point dilution curves were made and transferred to 96-well white polystyrene assay plates (Sigma-Aldrich, Buchs, Switzerland). […] Twenty microliters of binding buffer alone in the assay plate defined the total binding, whereas binding in the presence of 10 μM indatraline defined nonspecific binding. Frozen DAT membrane stocks were thawed and resuspended to a concentration of approximately 0.04 mg protein/ml binding buffer (1:1 diluted in H2O) using a polytron tissue homogenizer. The membrane homogenates (40 μg/ml) were then lightly mixed for 5-30 min with polyvinyl toluene […] wheat germ agglutinin-coated scintillation proximity assay (WGASPA; Amersham Biosciences) beads at 7.7 mg beads/ml homogenate. One hundred thirty microliters of the membrane/bead mixture were added to each well of the assay plate that contained radioligand and test compounds (final volume in each well, 200 μl) to start the assay, which was incubated for approximately 2 h at room temperature with agitation. The assay plates were then counted in the PVT SPA counting mode of a Packard Topcount. […] Non-linear regression was used to fit the data to sigmoid curves and determine IC50 values for binding and uptake. Ki values for binding and uptake were calculated using the following Cheng-Prusoff equation: Ki=IC50/(1+[S]/Km).

Data set [2] addresses hERG potassium channels (Homo sapiens (Human), UniProt Q12809). Description: Whole-cell patch-clamp on hERG potassium channels in stably transfected CHO cells. In kind it is cell-based. The method, then:
The whole-cell patch-clamp technique was used to investigate the effects of the test items on hERG (human-ether-a-go-go related gene) potassium channels in stably transfected CHO cells near physiological temperature (36±1° C.). The effects of compounds on hERG K^+-current parameters were evaluated at 4 concentrations (0.3-3-30-300 μM) in at least 3 CHO cells stably expressing the hERG channel. For electrophysiological measurements cells were seeded onto 35 mm sterile culture dishes containing 2 ml culture medium without Hygromycin B. Cells were cultivated at a density that enabled single cells (without visible connections to neighbouring cells) to be measured. Cells were incubated at 37° C. in a humidified atmosphere with 5% CO2 (rel. humidity about 95%). The cells were continuously maintained in and passaged in sterile culture flasks containing nutrient mixture F-12 (DMEM/F-12 with L-Glutamine) supplemented with 10% foetal bovine serum and 10% penicillin/streptomycin solution. […] The 35 mm culture dishes upon which cells were seeded at a density allowing single cells to be recorded were placed on the dish holder of the microscope and continuously perfused (at approximately 1 ml/min) with the bath solution (sodium chloride 150 mM, potassium chloride 4 mM, calcium chloride 1.2 mM, magnesium chloride 1 mM, HEPES 10 mM, pH (NaOH) 7.4) at near physiological temperature (36±1° C.). After formation of a Gigaohm seal between the patch electrodes and individual hERG stably transfected CHO cells (pipette resistance range: 2.0 MΩ-7.0 MΩ; seal resistance range: >1 GΩ) the cell membrane across the pipette tip was ruptured to assure electrical access to the cell interior (whole-cell patch-configuration). In case the quality of the seal was poor, the process of seal formation was repeated with a different cell and a new pipette. […] This voltage protocol was run at least 10 times at intervals of 10 s. If current density was judged to be too low for measurement, another cell was recorded. […] During wash-in of the test item the voltage protocol indicated above was run continuously again at 10 s intervals until the steady-state level of block was reached. The four test item concentrations of the compound were applied sequentially to 3 cells in a cumulative manner. […] Based on the IC50 value the IC20 was estimated. Each concentration of the test item was analyzed in three experiments (n=3).

In data set [3] the target is human TAAR1 (Homo sapiens (Human), UniProt Q96RJ0). Description: cAMP functional assay in HEK293 cells expressing human TAAR1. The conditions noted are these: for pEC50: cAMP, HEK293 cells expressing human TAAR1, read-out: hTAAR1 EC50. In kind it is cell-based. Here is the method:
The Expand High Fidelity PCR System (Roche Diagnostics) was used with 1.5 mM Mg^2+ and purified PCR products were cloned into pCR2.1-TOPO cloning vector (Invitrogen) following the instructions of the manufacturer. PCR products were subcloned into the pIRESneo2 vector (BD Clontech, Palo Alto, Calif.), and expression vectors were sequence verified before introduction in cell lines.
HEK293 cells (ATCC #CRL-1573) were cultured essentially as described by Lindemann et al. (2005). For the generation of stably transfected cell lines HEK293 cells were transfected with the pIRESneo2 expression plasmids containing the TAAR coding sequences (described above) with Lipofectamine 2000 (Invitrogen) according to the instructions of the manufacturer, and 24 hrs post transfection the culture medium was supplemented with 1 mg/ml G418 (Sigma, Buchs, Switzerland). After a culture period of about 10 d clones were isolated, expanded and tested for responsiveness to trace amines (all compounds purchased from Sigma) with the cAMP Biotrak Enzyme immunoassay (EIA) System (Amersham) following the non-acetylation EIA procedure provided by the manufacturer.
cAMP measurements were performed as described previously (Revel et al., Proc. Natl. Acad. Sci. USA 2011, 108, 8485-8490). In brief, cells that expressed human TAAR1 were plated on 96-well plates (BIOCOAT 6640; Becton Dickinson, Allschwil, Switzerland) and incubated for 20 h at 37° C. Prior to stimulation of the cells with a broad concentration range of agonists for 30 min at 37° C., the cells were washed with PBS and preincubated with PBS that contained 1 mM 3-isobutyl-1-methylxanthine for 10 min at 37° C. and 5% CO2. Stimulation with 0.2% DMSO was set as the basal level, and the effect of 30 μM β-PEA was set as the maximal response. […] Finally, the plates were read with a luminometer (1420 Multilabel counter; PerkinElmer, Schwerzenbach, Switzerland), and the amount of cAMP was calculated. […]

The target in data set [4] is mutant DAT (Mus musculus (Mouse), UniProt Q61327, A109V/F105C/L104V). The conditions noted are these: cocaine-insensitive DAT; cited from earlier work.

The text below walks through data of patent US11312711B2, “Morpholine derivative” (Hoffmann-La Roche Inc., priority 2016, dated 2022).

pEC50, pIC50, pKi: −log10 of the molar value. Where two headings read alike, the source gives them in different places.

Sequence of hERG potassium channels (Q12809 whole entry): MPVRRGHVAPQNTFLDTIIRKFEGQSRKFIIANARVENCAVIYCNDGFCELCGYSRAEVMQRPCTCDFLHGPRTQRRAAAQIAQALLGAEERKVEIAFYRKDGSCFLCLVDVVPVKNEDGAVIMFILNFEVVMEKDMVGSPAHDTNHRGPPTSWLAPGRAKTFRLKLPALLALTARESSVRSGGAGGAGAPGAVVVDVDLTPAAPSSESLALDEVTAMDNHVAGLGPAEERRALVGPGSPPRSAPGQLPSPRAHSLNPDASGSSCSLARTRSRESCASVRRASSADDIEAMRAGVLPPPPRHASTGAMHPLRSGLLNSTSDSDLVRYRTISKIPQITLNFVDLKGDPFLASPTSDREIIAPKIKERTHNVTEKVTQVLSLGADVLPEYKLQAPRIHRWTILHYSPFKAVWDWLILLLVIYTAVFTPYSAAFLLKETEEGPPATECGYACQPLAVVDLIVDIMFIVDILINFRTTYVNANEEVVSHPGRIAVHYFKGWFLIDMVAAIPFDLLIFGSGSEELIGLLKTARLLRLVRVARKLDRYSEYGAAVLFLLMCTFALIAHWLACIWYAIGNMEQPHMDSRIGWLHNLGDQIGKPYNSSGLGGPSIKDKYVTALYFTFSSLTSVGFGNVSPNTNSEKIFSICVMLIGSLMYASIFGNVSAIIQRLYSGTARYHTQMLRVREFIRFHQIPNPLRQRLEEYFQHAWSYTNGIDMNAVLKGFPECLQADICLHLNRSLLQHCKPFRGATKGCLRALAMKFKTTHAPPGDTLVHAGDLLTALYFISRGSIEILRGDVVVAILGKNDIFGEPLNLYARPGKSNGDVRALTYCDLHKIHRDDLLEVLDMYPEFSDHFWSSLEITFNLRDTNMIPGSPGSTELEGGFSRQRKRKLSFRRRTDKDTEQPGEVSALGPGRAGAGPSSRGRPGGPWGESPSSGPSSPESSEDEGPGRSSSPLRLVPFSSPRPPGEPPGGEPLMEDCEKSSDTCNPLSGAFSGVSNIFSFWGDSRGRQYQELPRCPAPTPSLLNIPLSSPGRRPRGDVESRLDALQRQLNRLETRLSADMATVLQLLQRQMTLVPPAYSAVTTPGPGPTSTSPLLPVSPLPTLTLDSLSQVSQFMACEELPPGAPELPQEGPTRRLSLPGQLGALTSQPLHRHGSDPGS
Sequence of human DAT (Q01959 whole entry): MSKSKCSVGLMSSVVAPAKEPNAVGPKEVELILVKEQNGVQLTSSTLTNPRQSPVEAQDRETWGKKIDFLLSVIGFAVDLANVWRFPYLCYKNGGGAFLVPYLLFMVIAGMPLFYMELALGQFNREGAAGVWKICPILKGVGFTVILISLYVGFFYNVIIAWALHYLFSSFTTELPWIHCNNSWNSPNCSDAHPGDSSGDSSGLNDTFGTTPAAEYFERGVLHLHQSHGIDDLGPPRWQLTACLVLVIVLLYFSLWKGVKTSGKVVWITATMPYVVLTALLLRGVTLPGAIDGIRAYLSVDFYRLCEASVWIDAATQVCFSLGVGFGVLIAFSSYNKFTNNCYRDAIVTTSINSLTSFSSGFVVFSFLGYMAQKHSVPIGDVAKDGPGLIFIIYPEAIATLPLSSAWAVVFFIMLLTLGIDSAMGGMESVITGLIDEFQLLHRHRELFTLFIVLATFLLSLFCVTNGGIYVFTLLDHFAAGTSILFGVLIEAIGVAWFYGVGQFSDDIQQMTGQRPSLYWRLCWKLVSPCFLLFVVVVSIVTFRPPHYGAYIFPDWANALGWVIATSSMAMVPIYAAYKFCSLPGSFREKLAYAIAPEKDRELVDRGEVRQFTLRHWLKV
Sequence of human TAAR1 (Q96RJ0 whole entry): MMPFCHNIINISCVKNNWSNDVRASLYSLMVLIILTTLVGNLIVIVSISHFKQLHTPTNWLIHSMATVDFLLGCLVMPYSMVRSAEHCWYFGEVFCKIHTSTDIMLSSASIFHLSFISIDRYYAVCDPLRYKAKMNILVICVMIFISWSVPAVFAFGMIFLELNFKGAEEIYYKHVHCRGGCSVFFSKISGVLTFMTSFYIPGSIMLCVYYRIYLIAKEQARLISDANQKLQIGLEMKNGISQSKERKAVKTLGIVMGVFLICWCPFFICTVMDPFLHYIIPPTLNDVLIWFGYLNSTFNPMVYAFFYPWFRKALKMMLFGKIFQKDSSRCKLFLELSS

In the case of “5-Chloro-N-[4-[(2S)-morpholin-2-yl]phenyl]pyridine-2-carboxamide [Example 12]”, the “Ratio DAT Ki/hTAAR1 EC50” value in data set [1] worked out at 8. Also, the “DAT selectivity ratio versus hTAAR1 EC50” value in data set [1] (DAT Ki versus hTAAR1 EC50) turned out to be 8 fold. The compound further gave a pKi in data set [1] ([3H]-WIN35,428 radioligand) of 5.75. Further, the “Ratio hERG IC20/hTAAR1 EC50” value in data set [2] was 15. The IC20 in data set [2] (estimated based on the IC50 value) is 3.21 µM. For the same compound, the “hERG selectivity ratio versus hTAAR1 EC50” value in data set [2] (hERG IC20 versus hTAAR1 EC50) is on record as 15 fold. In data set [2] (patch-clamp, CHO cells, 36±1° C.), this compound gave a pIC50 of 4.85. Besides, in data set [3] (% agonist activity, β-phenylethylamine = 100% agonism), the hTAAR1 efficacy was 40%. The negative-log EC50 (pEC50) in data set [3] (listed as Comparative example 12) and in data set [3] was 6.67 each time.
For `COC(=O)[C@H]1[C@@H](OC(=O)c2ccccc2)C[C@@H]2CC[C@H]1N2C` [cocaine], the “lower affinity of mutant DAT for cocaine relative to wild-type DAT” value in data set [4] is 89 fold.
